The record followed here is publication PMC12843137, “Fine-Tuning Side Chain Substitutions: Impacts on the Lipophilicity–Solubility–Permeability Interplay in Macrocyclic Peptides” (Marine Drugs, 2025).

Molecules are shown by their SMILES. In brackets after ≈: the same amount, converted by molar mass. Like-named read-outs stand apart in the source and are kept apart here.

Series [1] in a line: log D7.4 by shake-flask method (1-octanol/PBS). Type of series: physicochemical. As to the method:
(§1) One explanation for the high IC50 values (i.e., low activity) of the new compounds is their potential poor solubility in aqueous solution or inadequate lipophilicity. To investigate this hypothesis, we determined kinetic solubility in […] phosphate buffer at pH 7.4 (Table 1). […] The remaining two compounds, BE and 29, show low solubilities (<0.1 μM). […] Additionally, since approximately 95% of drugs are ionizable, assessment of lipophilicity at pH 7.4 (log D7.4) is essential during the initial phases of drug discovery. In this study, we employ the shake-flask method to evaluate this property. […] Because lipophilicity directly reflects compound–membrane interaction, the activity of these compounds against PANC-1 cells likely stems from their interaction with the cell membrane.
The basic solution is titrated with the acidic solution to achieve pH 7.4, with the pH verified and adjusted to 7.4 ± 0.1 on the experiment day. Saturated 1-octanol and PBS (pH 7.4) are also prepared. The stock solutions of test compounds and control compound progesterone are prepared in DMSO at a concentration of 10 mM (0.666 mM: compound 39). The detailed procedure for log D determinations can be found in the SI. […]
4. Procedure for log D determinations […]
µL of phosphate buffer saturated 1-octanol to get a concentration of 300 µM working solution. 20 µL of 300 µM compound solution is placed in order into their proper 96-well rack followed by the addition of 980 µL of 1-octanol saturated phosphate buffer. One stir stick is added to each vial and vials are sealed molded PTFE/Silicone plugs. Then the log D plate is transferred to the Eppendorf Thermomixer Comfort plate shaker and shaken at 25°C at 1,100 RPM for 1 h. The assay is performed in duplicate. After completion of 1 h, the stir sticks are removed using a big magnet. The samples are then centrifuged at 25°C at 20,000 g for 20 minutes to separate the phases, and syringe is used to remove the lower (buffer) phases to the empty tubes. Then the buffer phase is diluted with the same volume of acetonitrile/ultrapure water (50%/50%) for LC-MS/MS analysis. 300 µM working solution is diluted with acetonitrile/ultrapure water (50%/50%) to achieve a concentration of 3 µM. Then the 3 µM solution is diluted to 0.3 µM to get the total samples by adding 4 volumes of acetonitrile/ultrapure water (50%/50%) and 5 volumes of 1-octanol saturated Phosphate Buffer for LC-MS/MS analysis. […]
test compounds and control compound is placed in order into their 2.0 mL deep well plate, 500 µL of […]
followed by the addition of 500 µL of saturated PBS (pH 7.4). Seal the plate using a Silicone sealing mat.
Then the log D plate is transferred to the Eppendorf Thermomixer Comfort plate shaker and shaken at 25°C at 2,000 RPM for 2 h. After completion of 2 h, the samples are then centrifuged at 25°C at 3,220 g for 30 minutes to separate the phases, and pipette are used to remove the upper (1-octanol) and lower (buffer) phases to the empty tubes, respectively. Aliquots of 50 µL are taken from upper phases followed by addition of 450 µL of acetonitrile (containing internal standards (IS, 200 nM labetalol, 100 nM tolbutamide and 100 nM ketoprofen)). Mix with a pipette, and then aliquots of 50 µL are taken from the diluent followed by addition of 450 µL of acetonitrile (containing internal standards (IS, 200 nM labetalol, 100 nM tolbutamide and 100 nM ketoprofen)). […]

Series [2] in a line: Kinetic solubility in PBS pH 7.4. Type of series: physicochemical. As to conditions: sodium phosphate buffer (PBS), 25 °C, pH 7.4, aqueous buffer, kinetic from dmso stock, PBS pH 7.4, 25 °C. As to the method: as §1
Solubility is determined in 100 mM sodium phosphate buffer (PBS), pH 7.4. The stock solutions of test compound and control compound progesterone are prepared in DMSO at a concentration of 10 mM. 30 µL of working solutions of each sample is placed in order into their proper 96-well rack. 970 µL of PBS pH 7.4 is added into each vial of the cap-less Solubility Sample plate. The assay is performed in duplicate. Add one stir stick to each vial and seal using a molded PTFE/Silicone plug. Then the Solubility Sample plate is transferred to the Eppendorf Thermomixer Comfort plate shaker and shaken at 25 °C at 1100 RPM for 2 h. After completion of the 2 h, plugs are removed and the stir sticks are removed using a big magnet, the samples from the Solubility Sample plate are transferred into the filter plate. Using the Vacuum Manifold, all the samples are filtered. Aliquot of 5 µL is taken from the filtrate, followed by addition of 5 µL DMSO and 490 µL of a mixture of H2O and acetonitrile (1:1 in v/v). 200 μL of diluent is transferred to a new 96-well plate for LC-MS/MS analysis (see SI Bioanalytical Method for Solubility Measurement). The dilution factor is changed according to the solubility values and the LC-MS signal response.
MRM) / -4500 v (negative MRM). […]
13. Bioanalytical Method for Solubility Measurement
MS analysis: Triple Quad TM 5500 instrument from AB Inc (Canada) with an ESI interface
Injection volume: 1 μL, 3 μL, 5 μL or 10 μL
Column: ACQUITY UPLC BEH C18 (2.1 × 50 mmI.D. S-1.7 μm, 12 nm) Column
Mobile phase: 0.1% Ammonium hydroxide solution in water (A) and 0.1% Ammonium hydroxide solution
Column: XSelect Hss T3 2.5μm (2.1 × 50 mm) Column XP
Mobile phase: 0.1% formic acid in water (A) and 0.1% formic acid in acetonitrile (B)

A short description of series [3]: Caco-2 cell permeability study. Type of series: in vitro ADME. The conditions noted are these: human; for efflux ratio at 2 h, 5 µM: Caco-2, pH 7.4; for recovery at 2 h, 5 μM: Caco-2, pH 7.4, Caco-2, 5 μM; for Papp A→B at 2 h, 5 µM / Papp B→A at 2 h, 5 µM: pH 7.4, Caco-2, 5 μM; for Papp A→B at 2 h, 5 µM: apical to basolateral; for Papp B→A at 2 h, 5 µM: basolateral to apical. An excerpt: One of the physicochemical quantities that mirrors the interaction of a compound with the cell membrane is permeability. Traditionally, measuring permeability with the PAMPA model provides estimates of passive permeability across a model membrane. […] Therefore, we measure the cell permeability of the six compounds using Caco-2 cells, so that the apical to basolateral (A to B) and basolateral to apical (B to A) permeabilities, and thereby the efflux ratio, can be determined. Three commercial drugs (Table 2) are used as standard compounds to establish and validate our in-house assay.
For Caco-2 cells (originally obtained from the American Type Culture Collection; ATCC, Manassas, VA, USA), 50 μL and […] of cell culture medium are added to each well of the Transwell insert and reservoir, respectively. And then the HTS transwell plates are incubated at 37 °C, 5% CO2 for 1 h before cell seeding. Caco-2 cells are diluted to 6.86 × 10^5 cells/mL with culture medium and 50 μL of cell suspension is dispensed into the filter well of the 96-well HTS Transwell plate. Cells are cultivated for 14–18 days in a cell culture incubator at 37 °C, 5% CO2, 95% relative humidity. Cell culture medium is replaced every other day, beginning no later than 24 h after initial plating. Stock solutions of the test compounds are prepared at a concentration of 10 mM in DMSO. […] Detailed assay procedures are provided in the SI. […]
dilution factor is changed according to the log D value and the LC-MS signal response. The samples are evaluated by LC-MS/MS analysis. All experiments are performed in duplicates.
5. Caco-2 Cell Permeability Assay
The Caco-2 plate is removed from the incubator and washed twice with pre-warmed HBSS (10 mM HEPES, pH 7.4), and then incubated at 37 °C for 30 minutes. The stock solutions of control compounds and test compounds are diluted in DMSO to get 1 mM solutions and then diluted with HBSS (10 mM HEPES, pH 7.4) get 5 μM working solutions. The final concentration of DMSO in the incubation system is 0.5%. To determine the rate of drug transport in the apical to basolateral direction. 125 μL of 5 μM working solution of control compounds and test compounds are added to the Transwell insert (apical compartment), and transfer 50 μL sample (D0 sample) immediately from the apical compartment to a new 96-well plate. Fill the wells in the receiver plate (basolateral compartment) with 235 μL of HBSS (10 mM HEPES, pH 7.4). To determine the rate of drug transport in the basolateral to apical direction. 285 μL of 5 μM working solution of control compounds and test compounds are to the receiver plate wells (basolateral compartment), and transfer 50 μL sample (D0 sample) immediately from the basolateral compartment to a new 96-well plate.
Fill the wells in the Transwell insert (apical compartment) with 75 μL of HBSS (10 mM HEPES, pH 7.4).
The assay is performed in duplicate. The plates are incubated at 37 °C for 2 h. At the end of the incubation, 50 μL samples from donor sides (apical compartment for Ap→Bl flux, and basolateral compartment for Bl→Ap) and receiver sides (basolateral compartment for Ap→Bl flux, and apical compartment for Bl→Ap) are transferred to wells of a new 96-well plate, followed by the addition of 4 volume of cold acetonitrile containing appropriate internal standards (IS). Samples are Vortexed for 5 minutes and then centrifuged at 3,220 g for 30 minutes. An aliquot of 100 µL of the supernatant is mixed with an appropriate volume of ultra-pure water before LC-MS/MS analysis (see SI Bioanalytical Method for Caco-2 Cell Permeability […]
Papp (A to B) is greater than the Papp (A to B) of minoxidil it is assigned as high permeability. If the Papp (A to B) is […]

The mark [4] stands for this setting: read-out: Mean % Solution Recovery A to B.
Setting [5] is: read-out: Mean % Solution Recovery B to A.

For orientation: logD means the decadic logarithm of the distribution of all forms, ionised or not, between an organic phase and buffer at a given pH. As a reminder, the solubility is how much of the substance goes into solution per volume. Read a low solubility as a poorly soluble substance. The compound `CC(=O)[C@H]1CC[C@H]2[C@@H]3CCC4=CC(=O)CC[C@]4(C)[C@H]3CC[C@]12C` [Progesterone, reference compound] registered a logD in series [1] (1-octanol/PBS, pH 7.4, 1-Octanol/PBS pH 7.4, shake-flask) of 3.85. Moreover, the solubility at 2 h in series [2] stood at 13.1 µM (≈ 4.13 µg/mL).
What is called efflux ratio is the permeability from basolateral to apical divided by that in the opposite direction, in the common usage. The term Papp A→B denotes how fast a substance crosses the layer from the apical side. A low value points to poor permeation. Broadly, the Papp B→A is how fast a substance crosses the layer from the basolateral side. For `C[C@H]1O[C@@H](O[C@H]2[C@@H](O)C[C@H](O[C@H]3[C@@H](O)C[C@H](O[C@H]4CC[C@@]5(C)[C@H](CC[C@@H]6[C@@H]5C[C@@H](O)[C@]5(C)[C@@H](C7=CC(=O)OC7)CC[C@]65O)C4)O[C@@H]3C)O[C@@H]2C)C[C@H](O)[C@@H]1O` [Digoxin, reference compound], in series [3], the efflux ratio at 2 h, 5 µM is 25.9; the Papp A→B at 2 h, 5 µM stood at 0.77 ×10⁻⁶ cm/s; the Papp B→A at 2 h, 5 µM turned out to be 20 ×10⁻⁶ cm/s. In addition, the recovery at 2 h, 5 μM in series [3] (setting [4]) turned out to be 83.2%. Moreover, in series [3] (setting [5]), the recovery at 2 h, 5 μM is 95%.
In the case of `C[C@@H]1C(=O)[C@](C)(O)C(=O)NCC(=O)N[C@H](CN2CCN(C)CC2)/C=C/C(=O)N(C)CC(=O)O[C@H]1CCCCCc1cn(CCCCCCCCCC(=O)O)nn1` [Compound 39], the “log D7.4” value in series [1] (1-Octanol/PBS pH 7.4, shake-flask) is on record as −0.30. For the same compound, in series [3], the efflux ratio at 2 h, 5 µM was determined as 1.26; the apparent permeability from apical to basolateral (Papp A→B) at 2 h, 5 µM was 0.0836 ×10⁻⁶ cm/s; the Papp B→A at 2 h, 5 µM is 0.105 ×10⁻⁶ cm/s. The recovery at 2 h, 5 μM in series [3] (setting [4]) turned out to be 99.5%. The recovery at 2 h, 5 μM in series [3] (setting [5]) came to 48.6%.
Turning to `Nc1cc(N2CCCCC2)nc(N)[n+]1[O-]` [Minoxidil, reference compound], in series [3], the efflux ratio at 2 h, 5 µM was 1.08; the apparent permeability from apical to basolateral (Papp A→B) at 2 h, 5 µM worked out at 9.52 ×10⁻⁶ cm/s; the apparent permeability from basolateral to apical (Papp B→A) at 2 h, 5 µM was 10.3 ×10⁻⁶ cm/s. For the same compound, the recovery at 2 h, 5 μM in series [3] (setting [4]) came to 104%. For the same compound, the recovery at 2 h, 5 μM in series [3] (setting [5]) was 106%.
